Laboratory results: ChEMBL document CHEMBL1201862, “PubChem BioAssay data set” (2004)
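96-well plates; 48 h exposure; 5 concentrations. Endpoints by linear interpolation between flanking doses. Not reached: highest tested concentration assigned. Here, GI50 denotes the concentration required for 50% inhibition of growth.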 Calls of active or inactive are those of the source. Rule as the data show it: active = GI50 up to about 1.1 µM and inactive = higher.

Experiments:
Test in all cases: growth of human tumour cells (NCI), 48 h
[1] = test system: LOX IMVI
[2] = test system: K562
[3] = test system: RPMI-8226
[4] = test system: U-251
[5] = test system: SN12C
[6] = test system: ACHN
[7] = test system: SK-MEL-2
[8] = test system: HL-60
[9] = test system: HCT-15
[10] = test system: SNB-19
[11] = test system: MOLT-4
[12] = test system: NCI-H23
[13] = test system: COLO 205
[14] = test system: SK-OV-3
[15] = test system: CAKI-1
[16] = test system: HOP-62
[17] = test system: 786-0
[18] = test system: OVCAR-3
[19] = test system: HOP-92

Structure (SMILES) | GI50 [1] | GI50 [2] | GI50 [3] | GI50 [4] | GI50 [5] | GI50 [6] | GI50 [7] | GI50 [8] | GI50 [9] | GI50 [10] | GI50 [11] | GI50 [12] | GI50 [13] | GI50 [14] | GI50 [15] | GI50 [16] | GI50 [17] | GI50 [18] | GI50 [19]
Cc1nn(-c2ccccc2)c(S)c1C(=O)c1ccccc1 | 53.6 µM (inactive) | 39.8 µM (inactive) | 19.1 µM (inactive) | > 100 µM (inactive) | 21.2 µM (inactive) | 39.9 µM (inactive) | > 100 µM (inactive) | 32.1 µM (inactive) | 34.6 µM | 41 µM (inactive) | 24.4 µM (inactive) | 43.5 µM (inactive) | 89.3 µM (inactive) | > 100 µM (inactive) | > 100 µM (inactive) |  |  |  | 
N=C(N)/N=C(/C=C/c1ccccc1)CC1OC(=O)c2ccccc21 (stereo not drawn) | > 100 µM (inactive) | > 100 µM (inactive) | > 100 µM (inactive) | > 100 µM (inactive) | > 100 µM (inactive) | > 100 µM (inactive) | > 100 µM (inactive) | > 100 µM (inactive) | > 100 µM | > 100 µM (inactive) | > 100 µM (inactive) |  | > 100 µM (inactive) |  | > 100 µM (inactive) | > 100 µM (inactive) | > 100 µM (inactive) |  | 
CCOC(=O)C1=C(C)N(C2OC(COC(C)=O)C(OC(C)=O)C(OC(C)=O)C2OC(C)=O)C(=O)NC1c1ccccc1 (stereo not drawn) | > 100 µM (inactive) | > 100 µM (inactive) | 4.84 µM (inactive) | > 100 µM (inactive) | > 100 µM (inactive) | > 100 µM (inactive) | > 100 µM (inactive) | > 100 µM (inactive) | > 100 µM | > 100 µM (inactive) | 99.1 µM (inactive) | > 100 µM (inactive) | > 100 µM (inactive) | > 100 µM (inactive) | 83.9 µM (inactive) | > 100 µM (inactive) |  | > 100 µM (inactive) | 
COc1ccc2c(c1)[n+]([O-])c(C(=O)C/C(=N/OCCCc1ccccc1)C(=O)NC13CC4CC(CC(C4)C1)C3)c(C)[n+]2[O-] | > 100 µM (inactive) | 82.8 µM (inactive) | > 100 µM (inactive) | > 100 µM (inactive) | > 100 µM (inactive) | > 100 µM (inactive) | > 100 µM (inactive) | > 100 µM (inactive) | > 100 µM | > 100 µM (inactive) | > 100 µM (inactive) | > 100 µM (inactive) | > 100 µM (inactive) | > 100 µM (inactive) | > 100 µM (inactive) | > 100 µM (inactive) | > 100 µM (inactive) | > 100 µM (inactive) | 
Cc1cc2c(C)n(Cc3ccc(Cl)cc3Cl)nc2c(C(=O)O)c1C | > 100 µM (inactive) |  | > 100 µM (inactive) | > 100 µM (inactive) | 63.4 µM (inactive) | > 100 µM (inactive) | > 100 µM (inactive) | > 100 µM (inactive) | 91.2 µM | > 100 µM (inactive) | > 100 µM (inactive) | > 100 µM (inactive) | > 100 µM (inactive) | > 100 µM (inactive) |  | > 100 µM (inactive) | > 100 µM (inactive) | > 100 µM (inactive) | 42.9 µM (inactive)
S=C(N/N=C/c1ccccc1)NC1CC(c2ccccc2)Oc2ccccc21 (stereo not drawn) | > 100 µM (inactive) | 15.2 µM (inactive) |  | 33.4 µM (inactive) | > 100 µM (inactive) | > 10 µM (inactive) | > 100 µM (inactive) |  |  | 36.5 µM (inactive) | > 10 µM (inactive) | 25.8 µM (inactive) | > 100 µM (inactive) | 11.7 µM (inactive) | 28.4 µM (inactive) |  | 67 µM (inactive) | 8.95 µM (inactive) | 2.17 µM (inactive)
CCC1CC(C)=CCN1S(=O)(=O)c1ccc(C)cc1 (stereo not drawn) | 15.9 µM (inactive) | 7.5 µM (inactive) | 3.89 µM (inactive) |  | 9.57 µM (inactive) | 37 µM (inactive) | 11 µM (inactive) | 3.61 µM (inactive) | 6.52 µM | 28.8 µM (inactive) | 28.2 µM (inactive) |  | 16.5 µM (inactive) | 24.5 µM (inactive) | 6.9 µM (inactive) | 21.3 µM (inactive) | 33.5 µM (inactive) | 17.4 µM (inactive) | 
